Results: patent US20140057284A1, “PHOTOLUMINESCENT MOLECULAR COMPLEX AND METHOD FOR DETERMINING OF THE CONCENTRATION OF SAID MOLECULAR COMPLEX” (priority 2011, published 2014)

What was measured:
[1] = molecular target: catalytic subunit of cAMP-dependent protein kinase (PKAc) (Homo sapiens, UniProt P17612); experiment: Binding affinity to PKAc; conditions: PKAc and some other PKs of the AGC group; in words
PKAc = PKAc (Homo sapiens, UniProt P17612); experiment: Measurement of dissociation kinetics of inhibitor-kinase complexes with ARC-1063; format: binding; conditions: inhibitor 5-10 nM, PKAc 10 nM, 27° C., ARC-1063 100-300 nM
Procedure: Measurements of dissociation kinetics of non-labeled inhibitors from the inhibitor-kinase complexes (residence time) were carried out by mixing the solution of the examined inhibitor (5-10 nM) with PKAc (10 nM), and incubation of the solution for 15 min at 27° C., followed by addition of a high concentration of the luminescent probe ARC-1063 (final concentration of 100-300 nM), and measurement of the luminescence signal at 5 s time intervals (FIG. 10). The collected data were fitted to the first-order kinetic model yielding the dissociation rate constants for the examined inhibitors.

[2] = system: PKAc in living C9H6 cells; experiment: Monitoring of kinase activity in living cells loaded with ARC-1139; format: cell-based; conditions: H89 100 μM added after Forskolin
Procedure: CHO, C9H6 and HEK cells were cultured in F12 Nutrient Mixture supplemented with 10% fetal bovine serum, 2 mM L-glutamine, 100 U/ml penicillin and 100 μg/ml streptomycin at 37° C. in humidified atmosphere containing 5% CO2. In case of C9H6 cells, 300 μg/ml of Zeocine™ and 800 μg/ml of Geneticin® were additionally introduced to the nutrient mixture. Cells were seeded to 96-well plates (for plate reader experiments) and grown to 60%-80% confluency. The medium was replaced with fresh serum-free medium containing the luminescent probe ARC-1139 (10 μM) and incubated for 1 hour at 37° C. Subsequently, the cells were washed three times with PBS and analyzed on a PheraStar platereader with TRF optic modules [ex. 337(50) nm, em. 675(50) and 620(20) nm] using the time-resolved fluorescence measurement mode. Forskolin (final concentration of 25 μM) and H89 (final concentration of 100 μM) were added to the cells during the measurement (after 3 min and 7 min from the start of data acquisition, respectively)

SMILES	affinity of binding to PKAc [1]	also measured
N=C(N)NCCC[C@@H](NC(=O)CCCCCNC(=O)c1ccc(-c2ccncn2)s1)C(=O)NCCCCCC(=O)N[C@H](CCCNC(=N)N)C(=O)N[C@H](CCCNC(=N)N)C(=O)N[C@H](CCCNC(=N)N)C(=O)N[C@H](CCCNC(=N)N)C(=O)N[C@H](CCCNC(=N)N)C(=O)N[C@H](CCCNC(=N)N)C(=O)N[C@H](CCCCN)C(N)=O [ARC-1129]	subnanomolar or low nanomolar	
N=C(N)NCCC[C@@H](NC(=O)CCCCCNC(=O)c1ccc(-c2ncnc3[nH]ccc23)s1)C(=O)NCCCCCC(=O)N[C@H](CCCNC(=N)N)C(=O)N[C@H](CCCNC(=N)N)C(=O)N[C@H](CCCNC(=N)N)C(=O)N[C@H](CCCNC(=N)N)C(=O)N[C@H](CCCNC(=N)N)C(=O)N[C@H](CCCNC(=N)N)C(=O)N[C@H](CCCCN)C(N)=O [ARC-1135]	subnanomolar or low nanomolar	
CN[C@@H]1C[C@H]2O[C@@](C)([C@@H]1OC)n1c3ccccc3c3c4c(c5c6ccccc6n2c5c31)C(=O)NC4 [staurosporine]		Dissociation half-lives of PKAc complexes (PKAc): 12 s
N=C(N)NCCC[C@@H](NC(=O)CCCCCNC(=O)c1ccc(-c2ncnc3[nH]cnc23)s1)C(=O)NCCCCCC(=O)N[C@H](CCCNC(=N)N)C(=O)N[C@H](CCCNC(=N)N)C(=O)N[C@H](CCCNC(=N)N)C(=O)N[C@H](CCCNC(=N)N)C(=O)N[C@H](CCCNC(=N)N)C(=O)N[C@H](CCCNC(=N)N)C(=O)N[C@H](CCCCN)C(N)=O [ARC-1132]	subnanomolar or low nanomolar	
N=C(N)NCCC[C@@H](NC(=O)CCCCCNC(=O)c1ccc(-c2ccnc(N)n2)s1)C(=O)NCCCCCC(=O)N[C@H](CCCNC(=N)N)C(=O)N[C@H](CCCNC(=N)N)C(=O)N[C@H](CCCNC(=N)N)C(=O)N[C@H](CCCNC(=N)N)C(=O)N[C@H](CCCNC(=N)N)C(=O)N[C@H](CCCNC(=N)N)C(=O)N[C@H](CCCCNc1ccc([N+](=O)[O-])c2nonc12)C(N)=O [ARC-676]	subnanomolar or low nanomolar	
N=C(N)NCCC[C@@H](NC(=O)[C@@H](CCCNC(=N)N)NC(=O)CCCCCNC(=O)[C@@H](CCCCN)NC(=O)CCCCCNC(=O)c1ccc(-c2ccncc2)s1)C(N)=O [ARC-1121]	subnanomolar or low nanomolar	
N=C(N)NCCC[C@@H](NC(=O)CCCCCNC(=O)c1ccc(-c2ccnc(N)n2)[se]1)C(=O)NCCCCCC(=O)N[C@H](CCCNC(=N)N)C(=O)N[C@H](CCCNC(=N)N)C(=O)N[C@H](CCCNC(=N)N)C(=O)N[C@H](CCCNC(=N)N)C(=O)N[C@H](CCCNC(=N)N)C(=O)N[C@H](CCCNC(=N)N)C(=O)N[C@H](CCCCN)C(N)=O [ARC-1138]	subnanomolar or low nanomolar	
N=C(N)NCCC[C@@H](NC(=O)CCCCCNC(=O)c1ccc(-c2ccnc(N)n2)s1)C(=O)NCCCCCC(=O)N[C@H](CCCNC(=N)N)C(=O)N[C@H](CCCNC(=N)N)C(=O)N[C@H](CCCNC(=N)N)C(=O)N[C@H](CCCNC(=N)N)C(=O)N[C@H](CCCNC(=N)N)C(=O)N[C@H](CCCNC(=N)N)C(=O)N[C@H](CCCCN)C(N)=O [ARC-668]	subnanomolar or low nanomolar	
Cc1nccc(-c2ccc(C(=O)NCCCCCC(=O)N[C@H](CCCNC(=N)N)C(=O)NCCCCCC(=O)N[C@H](CCCNC(=N)N)C(=O)N[C@H](CCCNC(=N)N)C(=O)N[C@H](CCCNC(=N)N)C(=O)N[C@H](CCCNC(=N)N)C(=O)N[C@H](CCCNC(=N)N)C(=O)N[C@H](CCCNC(=N)N)C(=O)N[C@H](CCCCN)C(N)=O)s2)n1 [ARC-1123]	subnanomolar or low nanomolar	
O=S(=O)(NCCNC/C=C/c1ccc(Br)cc1)c1cccc2cnccc12 [H89]		luminescence from live cells loaded with ARC-1139 after Forskolin [2]: signal decreased
